Key:
[1] = Excretion of BBR, dhBBR and other BBR metabolites in rat feces, urine and bile after oral BBR; format: in vivo, SD rats
Experimental: For the analysis of the in vivo intestinal metabolites of BBR, six SD rats were orally treated with BBR (200 mg/kg), and their feces were collected 0, 6, 12, 24, 36, 48, and 72 h after treatment. The method used for the preparation of the feces was reported previously. An aliquot of 1 μl was injected into the GC-MS instrument. The level of dhBBR in feces was measured and calculated based on the standard curve obtained with the in vitro intestinal bacteria incubation mixture.

[2] = biological target: T1, monoamine oxidase-B (MAO-B) (Homo sapiens, UniProt P27338); settings: cell-free system, dhBBR 100 μM, 30 min
T1 sequence (P27338 1-520): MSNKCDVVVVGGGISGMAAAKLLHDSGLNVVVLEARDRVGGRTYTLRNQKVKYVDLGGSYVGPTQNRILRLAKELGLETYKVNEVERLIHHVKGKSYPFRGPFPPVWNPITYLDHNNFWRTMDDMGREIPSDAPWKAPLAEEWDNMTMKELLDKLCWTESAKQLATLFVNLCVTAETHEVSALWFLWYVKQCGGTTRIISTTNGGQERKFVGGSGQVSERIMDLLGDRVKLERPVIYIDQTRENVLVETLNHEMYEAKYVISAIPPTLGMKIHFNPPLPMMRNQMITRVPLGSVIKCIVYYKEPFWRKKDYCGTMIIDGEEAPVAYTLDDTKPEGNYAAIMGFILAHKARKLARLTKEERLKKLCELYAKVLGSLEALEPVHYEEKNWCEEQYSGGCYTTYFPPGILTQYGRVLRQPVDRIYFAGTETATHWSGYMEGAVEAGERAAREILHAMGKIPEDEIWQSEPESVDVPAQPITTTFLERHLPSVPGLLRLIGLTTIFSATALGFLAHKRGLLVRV
Experimental: The reaction system consisted of dhBBR (100 μM), MAO-B (0.2 mg/ml) and phosphate-buffered saline (PBS, pH = 7.4) in a final volume of 200 μl. The MAO-B was pre-incubated via centrifugation at 850 rpm at 37 °C for 5 min, and this step was followed by the addition of dhBBR. The reaction was terminated after 30 min by adding an equal volume of ice-cold acetonitrile and centrifuging at 14,000 g for 5 min. Ten microliters of the supernatant was injected into the HPLC instrument for analysis.

[3] = Plasma pharmacokinetics after oral dhBBR or BBR in rats; format: in vivo, SD rats; settings: oral dhBBR 200 mg/kg
Experimental: The plasma (100 μl) was precipitated with 100 μl of acetonitrile after addition of 10 μl of the internal standard. BBR served as a control in the study. The plasma concentrations of BBR and dhBBR were determined using LC-MS/MS 8040 and LC-MS/MS 8050.

[4] = dhBBR-to-BBR reversion in rat small intestine homogenate; format: in vitro ADME; settings: 10-min incubation
Experimental: The rat duodenum, jejunum and ileum were collected separately, washed thoroughly with saline and dried. After being weighed, the tissues were homogenized with saline at a ratio of 1: 2 [w (g) /v (ml)]. DhBBR was dissolved in a mixture of methanol and DMSO at a ratio of 1:1 with a final concentration of 5 mg/ml. Ten microliters of dhBBR (5 mg/ml) was mixed with 1 ml of the homogenates. The samples were then centrifuged at 14,000 g for 5 min, and the supernatants were collected and mixed with an equal volume of ice-cold acetonitrile to terminate the reaction. The samples were centrifuged at 14,000 g for 5 min, and the supernatant was used for the HPLC analysis.

[5] = system: rat large intestinal bacteria (RLIB); test: Conversion of BBR into dhBBR by rat large intestinal bacteria in vitro; format: in vitro ADME; settings: BBR incubated with rat large intestinal bacteria
Experimental: The method was reported previously. Briefly, colon contents from six rats were pooled, and 5 g of the sample was transferred into a flask containing the anaerobic medium (100 ml). After thorough mixing, the cultures (which contained intestinal bacteria and anaerobic medium) were pre-incubated under anaerobic conditions with a N2 atmosphere at 37 °C for 60 min. Rutin (10 μl, 1.0 mg/ml in methanol) was used as a positive reference for intestinal metabolism.
Ten microliters of BBR at different concentrations was added into the fresh human or rat intestinal bacteria cultures (990 μl), with methanol (10 μl) as the negative control. The final concentrations of BBR in the incubation system were 100, 10, and 5 μg/ml. The cultures were incubated at 37 °C for 72 h in the presence or absence of human or rat intestinal bacteria.
After termination of the reaction with acetonitrile (1 ml), 50 μl of the internal standard (tetrahydropalmatine, 2.0 mg/ml in methanol) was added into the BBR samples, which were then mixed for 30 sec and centrifuged at 7,500 g for 15 min. The supernatant was dried under nitrogen flow at room temperature, and the residue was dissolved in 100 μl of methanol and centrifuged at 7,500 g for 15 min. The metabolites were analyzed by LC/MS^n-IT-TOF using a previously reported method. […]

[6] = 72-h cumulative fecal excretion of BBR and dhBBR in pseudo germ-free (PGF) and conventional rats; format: in vivo, SD rats; settings: oral BBR 200 mg/kg
Experimental: Male SD rats (180–200 g) were orally treated with cefadroxil (100 mg/kg), terramycin (300 mg/kg) and erythromycin (300 mg/kg) twice a day for 3 days, and pharmacokinetic examination was performed 2 days after final administration. The colon contents of the rats were collected on the first and third days after the final treatment with antibiotics, and the germ-free status was confirmed by culturing fecal samples aerobically on a nutrient agar culture medium. Fecal samples from non-antibiotic-exposed rats served as control samples. Before oral administration of a single dose of BBR (200 mg/kg), the PGF rats were fasted overnight with free access to water. […] The samples were stored at −20 °C for further analysis.

[7] = Absorption of BBR and dhBBR in Caco-2 cells; format: in vitro ADME; settings: human
Experimental: (§1) A Caco-2 cell assay was conducted using a method reported previously. […] To determine the rate of drug transport in the apical-to-basolateral direction, 200 μl of the compound working solution was added to the filter well (apical compartment), and 800 μl of HBSS was added to the receiver plate (basolateral compartment). Accordingly, to determine the rate of drug transport in the basolateral-to-apical direction, 800 μl of the compound working solution was added to each well of the receiver plate and 200 μl of HBSS was added to the filter well. The plates were incubated for 30 min at 37 °C with shaking at 150 rpm on a rotary shaker. At the end of the transport period, aliquots of 50 μl were removed directly from the apical and basolateral wells and transferred to wells of new plates. Four volumes of cold methanol containing internal standards were added into each well. The samples were centrifuged at 16,000 g for 15 min. Aliquots of 200 μl of the supernatant were used for the LC-MS/MS analysis.

[8] = system: Caco-2 cells; test: Absorption of BBR and dhBBR in Caco-2 cells; format: in vitro ADME; settings: Caco-2
Experimental: as §1

Structure (SMILES): COc1ccc2c(c1OC)CN1CCc3cc4c(cc3C1=C2)OCO4 [dhBBR, dihydroberberine]
- time of peak amount of dhBBR in feces ([1]; after oral BBR): 12 to 24 h
- detection of dhBBR in rat excretions ([1]; oral BBR, 72-h period, urine, bile and feces): detected only in feces
- reversion from dhBBR to BBR attributable to MAO-B [2]: approximately 10%
- AUC(0-t) ([3]; SD, rat, plasma, po, 200 mg/kg, Fig. 3b curve 2, read-out: AUC(0-t) of dhBBR in plasma): 48.9 ng·h/mL
- Cmax ([3]; SD, rat, plasma, po, 200 mg/kg, Fig. 3b curve 2, read-out: Cmax of dhBBR in plasma): 10.2 ng/mL
- dhBBR level in plasma [3]: less than 10 ng/ml
- dhBBR-to-BBR reversion ([4]; duodenum and jejunum homogenate): almost completely
- dhBBR-to-BBR reversion rate ([4]; ileum homogenate): more than 80%
- incubation time until dhBBR became detectable [5]: ≤ 24 h
- 72-h-cumulative dhBBR in feces, % of the giving amount of BBR ([6]; PGF rats): 6.09%
- 72-h-cumulative dhBBR in feces, % of the giving amount of BBR ([6]; untreated (conventional) rats): 18.21%
- efflux ratio at 30 min, 5 μM ([7]; Caco-2, pH 7.4, read-out: efflux ratio (ER)): 1.58
- Papp A→B at 30 min, 5 μM ([7]; pH 7.4, Caco-2, 5 μM, 30 min): 4.51 ×10⁻⁶ cm/s
- fold Papp (AP-BL) of dhBBR over BBR [8]: 11.9 fold

Source: PMC4502414, “Transforming berberine into its intestine-absorbable form by the gut microbiota” (Scientific Reports, 2015)
